In general, TGI refers to the concentration at which net growth stops. Higher therefore signals less potent growth arrest.

Among the test systems are OVCAR-8 ovarian; HCT-15 colon; HCC-2998 colon; ACHN renal; A498 renal; SNB-19 CNS; OVCAR-5 ovarian; M14 melanoma; U251 CNS; MCF7 breast; UACC-257 melanoma; NCI/ADR-RES ovarian; CAKI-1 renal; OVCAR-4 ovarian; SW-620 colon; SF-268 CNS; NCI-H226 lung; OVCAR-3 ovarian; KM12 colon; RPMI-8226 leukemia.
Holding throughout (assay): DTP human tumour cell line panel, 48 h

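Each compound was tested at five concentrations against cells in 96-well plates for 48 hours. TGI: concentration producing complete growth inhibition.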 Where only a bound is given, the exact number is not on record here.

Consider `CCN(CC)/[N+]([O-])=N/OCOC(C)=O`, for which the TGI with OVCAR-8 ovarian, in the experiment on HCT-15 colon, in the experiment with HCC-2998 colon, with ACHN renal, in the experiment with A498 renal and in the experiment on SNB-19 CNS was greater than 100 µM in each case. Besides, the TGI with OVCAR-5 ovarian, in the experiment with M14 melanoma, in the experiment with U251 CNS, with MCF7 breast, with UACC-257 melanoma and in the experiment with NCI/ADR-RES ovarian was greater than 100 µM in each case. The TGI with CAKI-1 renal, with OVCAR-4 ovarian, in the experiment with SW-620 colon, in the experiment on SF-268 CNS, with NCI-H226 lung and in the experiment on OVCAR-3 ovarian was greater than 100 µM each time. Also, the TGI in the experiment with KM12 colon and in the experiment with RPMI-8226 leukemia was greater than 100 µM each time.

For `O=c1[nH]nc(Cn2c3ccc(Br)cc3c3nc4ccccc4nc32)n1C1CCCCC1`, the TGI in the experiment on OVCAR-8 ovarian was greater than 100 µM; with HCT-15 colon it was greater than 100 µM; with HCC-2998 colon, greater than 100 µM; with ACHN renal, greater than 100 µM; in the experiment on A498 renal, 57.4 µM; in the experiment on SNB-19 CNS, greater than 100 µM. Besides, the TGI in the experiment with OVCAR-5 ovarian, with M14 melanoma, in the experiment on U251 CNS, in the experiment with MCF7 breast, with UACC-257 melanoma and in the experiment on NCI/ADR-RES ovarian was greater than 100 µM in each case. Besides, the TGI with CAKI-1 renal, with OVCAR-4 ovarian, in the experiment on SW-620 colon, in the experiment with SF-268 CNS, in the experiment with NCI-H226 lung and with OVCAR-3 ovarian was greater than 100 µM throughout. Besides, the TGI in the experiment with KM12 colon was greater than 100 µM; in the experiment with RPMI-8226 leukemia it was 77.6 µM.

With `COc1ccc2c(c1)CCCN2S(=O)(=O)c1ccccc1[N+](=O)[O-]`, the total growth inhibition concentration (TGI) with OVCAR-8 ovarian is greater than 89.4 µM; with HCT-15 colon, greater than 97.4 µM; in the experiment with HCC-2998 colon, 84.5 µM; in the experiment with ACHN renal it was greater than 100 µM; in the experiment on A498 renal it was greater than 78 µM; in the experiment on SNB-19 CNS, greater than 100 µM. Moreover, the TGI in the experiment with OVCAR-5 ovarian was greater than 100 µM; in the experiment on M14 melanoma, greater than 92.8 µM; in the experiment on U251 CNS, greater than 92 µM; in the experiment with MCF7 breast, 99.3 µM; in the experiment with UACC-257 melanoma it was greater than 100 µM; with NCI/ADR-RES ovarian, greater than 85.6 µM. The TGI is greater than 100 µM with CAKI-1 renal; greater than 100 µM in the experiment on OVCAR-4 ovarian; greater than 100 µM with SW-620 colon; greater than 96.8 µM in the experiment with SF-268 CNS; greater than 96.2 µM in the experiment with NCI-H226 lung; greater than 92.3 µM with OVCAR-3 ovarian. The TGI with KM12 colon is greater than 100 µM; in the experiment on RPMI-8226 leukemia, 71.3 µM.

As to `COc1ccccc1N=N/C(=N\NC(=O)c1ccc(C)cc1)c1ccc(N(CCC#N)CCC#N)cc1C`, the TGI with OVCAR-8 ovarian, in the experiment with HCT-15 colon, with HCC-2998 colon, with ACHN renal, in the experiment on A498 renal and in the experiment on SNB-19 CNS was greater than 100 µM in each case. The TGI in the experiment on OVCAR-5 ovarian, in the experiment with M14 melanoma, with U251 CNS, in the experiment with MCF7 breast, with UACC-257 melanoma and with NCI/ADR-RES ovarian was greater than 100 µM in each case. Besides, the TGI in the experiment with CAKI-1 renal is greater than 100 µM; in the experiment with OVCAR-4 ovarian, greater than 100 µM; in the experiment with SW-620 colon, greater than 100 µM; with SF-268 CNS, greater than 100 µM; with NCI-H226 lung it was 28.5 µM; in the experiment on OVCAR-3 ovarian, 61.9 µM. For the same molecule, the TGI in the experiment on KM12 colon and in the experiment with RPMI-8226 leukemia was greater than 100 µM in each case.

Consider `N#Cc1c(Cl)nc2ccccc2c1N=[N+]=[N-]`, for which the TGI was 7.7 µM with OVCAR-8 ovarian; 4.3 µM in the experiment with HCT-15 colon; 14.4 µM in the experiment on HCC-2998 colon; 4.11 µM in the experiment on ACHN renal; 36.2 µM in the experiment with A498 renal; 29.7 µM with SNB-19 CNS. Also, the TGI came out at 15.2 µM in the experiment with OVCAR-5 ovarian; 6.48 µM in the experiment with M14 melanoma; 12.5 µM with U251 CNS; 22.5 µM in the experiment with MCF7 breast; 27.8 µM in the experiment on UACC-257 melanoma; 37.3 µM with NCI/ADR-RES ovarian. Further, the TGI was found to be 3.12 µM in the experiment on CAKI-1 renal; 4.24 µM in the experiment on OVCAR-4 ovarian; 3.54 µM with SW-620 colon; 11.2 µM in the experiment on SF-268 CNS; 33.1 µM in the experiment on NCI-H226 lung; 3.76 µM in the experiment on OVCAR-3 ovarian. The TGI is 17.8 µM with KM12 colon and 7.89 µM with RPMI-8226 leukemia.

With `O=[N+]([O-])C(=C1Nc2ccccc2N1)/C(Cl)=C(/Cl)N1CCOCC1`, the TGI in the experiment on OVCAR-8 ovarian, in the experiment with HCT-15 colon, in the experiment with HCC-2998 colon, with ACHN renal, in the experiment on A498 renal and with SNB-19 CNS was greater than 100 µM throughout. Besides, the TGI in the experiment on OVCAR-5 ovarian, in the experiment on M14 melanoma, in the experiment with U251 CNS, in the experiment with MCF7 breast, in the experiment on UACC-257 melanoma and with NCI/ADR-RES ovarian was greater than 100 µM each time. Further, the TGI in the experiment with CAKI-1 renal is greater than 100 µM; with OVCAR-4 ovarian, 61 µM; with SW-620 colon, greater than 100 µM; with SF-268 CNS, 62.5 µM; in the experiment on NCI-H226 lung, greater than 100 µM; with OVCAR-3 ovarian it was 96.6 µM. Further, the TGI in the experiment on KM12 colon and in the experiment with RPMI-8226 leukemia was greater than 100 µM each time.

Turning to `CO[C@@H]1C[C@H]2N3CC[C@@]2(c2cc4c(cc2C3)OCO4)[C@H]2O[C@@H]12`, the TGI in the experiment with OVCAR-8 ovarian, in the experiment with HCT-15 colon, in the experiment with HCC-2998 colon, in the experiment on ACHN renal, with A498 renal and with SNB-19 CNS was greater than 100 µM each time. The TGI in the experiment with OVCAR-5 ovarian, with M14 melanoma, with U251 CNS, in the experiment with MCF7 breast, in the experiment on UACC-257 melanoma and in the experiment on NCI/ADR-RES ovarian was greater than 100 µM each time. For the same molecule, the TGI in the experiment on CAKI-1 renal was greater than 100 µM; with OVCAR-4 ovarian it was greater than 100 µM; with SW-620 colon it was greater than 100 µM; with SF-268 CNS, greater than 100 µM; in the experiment on NCI-H226 lung, 4.59 µM; in the experiment with OVCAR-3 ovarian it was greater than 100 µM. The total growth inhibition concentration (TGI) with KM12 colon and in the experiment on RPMI-8226 leukemia was greater than 100 µM in each case.

The values above are taken from PubChem BioAssay (NCI).
